ChEMBL document CHEMBL1141345, “Bacillamides from a hypersaline microbial mat bacterium” (J Nat Prod, 2007)
The source made the active and inactive calls.

Key:
Bacillus endophyticus = experiment: Antimicrobial activity against Bacillus endophyticus SP31 isolate at <500 uM by broth dilution assay; type: functional; details: Priestia endophytica
Staphylococcus aureus [1] = experiment: Growth inhibition of methicillin-resistant Staphylococcus aureus; type: functional, organism-based
Staphylococcus aureus [2] = experiment: Reduction of alpha-toxin secretion in biofilm-forming methicillin-resistant Staphylococcus aureus at <150 uM; type: functional, organism-based

Measured: Activity

C[C@@H](O)c1nc(C(=O)NCCc2c[nH]c3ccccc23)cs1
inactive: all assays above

CC(=O)N[C@H](C)c1nc(C(=O)NCCc2c[nH]c3ccccc23)cs1
inactive: all assays above

CC(=O)c1nc(C(=O)NCCc2c[nH]c3ccccc23)cs1
inactive: all assays above
